Reference: patent US20120022164A1, “EXTERNAL PREPARATION COMPRISING PROSTAGLANDIN DERIVATIVE” (TAISHO PHARMACEUTICAL CO., LTD., priority 2006, published 2012)
Like-named read-outs stand apart in the source and are kept apart here.

Legend:
[1] = Solubility of compound of formula II in cyclodextrin aqueous solutions (Test Example 7); format: physicochemical; details: for solubility at 24 h: 25 °C, aqueous with cosolvent or surfactant or cyclodextrin, thermodynamic from solid
Protocol: A complex containing the compound of formula II and the cyclodextrin can be obtained by grinding a block prepared by freeze-drying a solution which is obtained by dissolving the both into water. In order to examine the minimum content (formulation amount) of cyclodextrin required to obtain the complex, solubility of the compound of formula II in cyclodextrin aqueous solutions which have different concentrations of and different types of cyclodextrin was measured. That is, cyclodextrin aqueous solutions of various concentrations were prepared by dissolving α-cyclodextrin, β-cyclodextrin, γ-cyclodextrin or hydroxypropyl-β-cyclodextrin into water. After each solution was poured into a test tube, the compound of formula II was added excessively. The test tube was shaken in a water bath at 25° C. for 24 hours, and a concentration of the dissolved compound of formula II was quantified with high-performance liquid chromatography (Equipment: LC10VP series manufactured by SHIMADZU CORPORATION, Column: Develosil ODS-HG-5 manufactured by Nomura Chemical Co., Ltd., Inner diameter: 4.6 mm, Length: 15 cm, Column temperature: 40° C., Mobile phase: mixed solution of water/acetonitrile/phosphoric acid (550:450:1), Flow rate: 1 mL/min, Detection wavelength: 200 nm). With this, solubility of the compound of formula II and molar ratio of the compound of formula II and each type of cyclodextrin were calculated.
Note that, for calculation of the molar ratios, molecular weights of the compound of formula II, α-cyclodextrin, β-cyclodextrin, γ-cyclodextrin and hydroxypropyl-β-cyclodextrin were set to 420.99, 972.84, 1134.98, 1297.12 and 1506.69, respectively.

Solubility in water = format: physicochemical; details: water at 25° C.
[2] = cited from earlier work; for Solubility in water: cyclodextrins, water at 25° C.

O=C(O)CSCCCC[C@@H]1[C@@H](C#C[C@@H](O)C2CCCCC2)[C@H](O)C[C@H]1Cl [compound of formula II]
Solubility of compound of formula II (mg/mL) ([1]; hydroxypropyl-β-cyclodextrin 0.25% by mass in water, 25° C., * completely dissolved, actual solubility assumed much higher): > 0.10* mg/mL | Solubility of compound of formula II (mg/mL) ([1]; hydroxypropyl-β-cyclodextrin 5% by mass in water, 25° C., * completely dissolved, actual solubility assumed much higher): > 2.0* mg/mL | Solubility of compound of formula II (mg/mL) ([1]; hydroxypropyl-β-cyclodextrin 10% by mass in water, 25° C., * completely dissolved, actual solubility assumed much higher): > 3.0* mg/mL | solubility at 24 h ([1]; α-cyclodextrin aqueous solution, α-cyclodextrin 1% by mass in water, 25° C., 24 hours, read-out: Solubility of compound of formula II): 110 µg/mL | solubility at 24 h ([1]; α-cyclodextrin aqueous solution, α-cyclodextrin 2% by mass in water, 25° C., 24 hours, read-out: Solubility of compound of formula II): 170 µg/mL | solubility at 24 h ([1]; α-cyclodextrin aqueous solution, α-cyclodextrin 5% by mass in water, 25° C., 24 hours, read-out: Solubility of compound of formula II): 500 µg/mL | solubility at 24 h ([1]; α-cyclodextrin aqueous solution, α-cyclodextrin 10% by mass in water, 25° C., 24 hours, read-out: Solubility of compound of formula II): 1220 µg/mL | solubility at 24 h ([1]; α-cyclodextrin aqueous solution, α-cyclodextrin 12% by mass in aqueous solution, 25° C. (FIG. 1), read-out: Solubility of the compound of formula II): 1520 µg/mL | solubility at 24 h ([1]; β-cyclodextrin aqueous solution, β-cyclodextrin 1% by mass in water, 25° C., 24 hours, read-out: Solubility of compound of formula II): < 100 µg/mL | solubility at 24 h ([1]; β-cyclodextrin aqueous solution, β-cyclodextrin 2% by mass in water, 25° C., * completely dissolved, actual solubility assumed much higher, read-out: Solubility of compound of formula II): > 200 µg/mL | Compound of formula II: cyclodextrin (molar ratio) ([1]; γ-cyclodextrin 5% by mass): 0.1396 | solubility at 24 h ([1]; γ-cyclodextrin aqueous solution, γ-cyclodextrin 0.1% by mass in water, 25° C., * completely dissolved, actual solubility assumed much higher, read-out: Solubility of compound of formula II): > 50 µg/mL | solubility at 24 h ([1]; γ-cyclodextrin aqueous solution, γ-cyclodextrin 1% by mass in water, 25° C., 24 hours, read-out: Solubility of compound of formula II): 170 µg/mL | solubility at 24 h ([1]; γ-cyclodextrin aqueous solution, γ-cyclodextrin 5% by mass in water, 25° C., 24 hours, read-out: Solubility of compound of formula II): 120 µg/mL | solubility (Solubility in water): ~60 µg/mL

OC[C@H]1O[C@@H]2O[C@H]3[C@H](O)[C@@H](O)[C@@H](O[C@H]4[C@H](O)[C@@H](O)[C@@H](O[C@H]5[C@H](O)[C@@H](O)[C@@H](O[C@H]6[C@H](O)[C@@H](O)[C@@H](O[C@H]7[C@H](O)[C@@H](O)[C@@H](O[C@H]1[C@H](O)[C@H]2O)O[C@@H]7CO)O[C@@H]6CO)O[C@@H]5CO)O[C@@H]4CO)O[C@@H]3CO [α-cyclodextrin]
Solubility in water [2]: approximately 14% | Solubility of α-cyclodextrin in water ([2]; water): approximately 14 % by mass

hydroxypropyl-β-cyclodextrin
Solubility in water [2]: approximately 22%

OC[C@H]1O[C@@H]2O[C@H]3[C@H](O)[C@@H](O)[C@@H](O[C@H]4[C@H](O)[C@@H](O)[C@@H](O[C@H]5[C@H](O)[C@@H](O)[C@@H](O[C@H]6[C@H](O)[C@@H](O)[C@@H](O[C@H]7[C@H](O)[C@@H](O)[C@@H](O[C@H]8[C@H](O)[C@@H](O)[C@@H](O[C@H]1[C@H](O)[C@H]2O)O[C@@H]8CO)O[C@@H]7CO)O[C@@H]6CO)O[C@@H]5CO)O[C@@H]4CO)O[C@@H]3CO [β-cyclodextrin]
Solubility in water [2]: approximately 2%
